From article PMC3914206

Columns and labels:
Type in all cases: binding
panel of 442 kinases [1] = molecular target: T1, panel of 442 kinases (Homo sapiens, UniProt P31152); settings: Compound Concentration 10 µM
T1 construct: purchased KINOMEscan
Source text: (§1) We assessed the selectivity of members of this scaffold using the KINOMEscan methodology across a near comprehensive panel of 442 kinases [[18,27]].

panel of 442 kinases [2] = molecular target: T2, panel of 442 kinases (Homo sapiens, UniProt O43318); settings: kinase TAK1; compound concentration 10 µM
T2 construct: purchased KINOMEscan
T2 sequence (O43318 1-606): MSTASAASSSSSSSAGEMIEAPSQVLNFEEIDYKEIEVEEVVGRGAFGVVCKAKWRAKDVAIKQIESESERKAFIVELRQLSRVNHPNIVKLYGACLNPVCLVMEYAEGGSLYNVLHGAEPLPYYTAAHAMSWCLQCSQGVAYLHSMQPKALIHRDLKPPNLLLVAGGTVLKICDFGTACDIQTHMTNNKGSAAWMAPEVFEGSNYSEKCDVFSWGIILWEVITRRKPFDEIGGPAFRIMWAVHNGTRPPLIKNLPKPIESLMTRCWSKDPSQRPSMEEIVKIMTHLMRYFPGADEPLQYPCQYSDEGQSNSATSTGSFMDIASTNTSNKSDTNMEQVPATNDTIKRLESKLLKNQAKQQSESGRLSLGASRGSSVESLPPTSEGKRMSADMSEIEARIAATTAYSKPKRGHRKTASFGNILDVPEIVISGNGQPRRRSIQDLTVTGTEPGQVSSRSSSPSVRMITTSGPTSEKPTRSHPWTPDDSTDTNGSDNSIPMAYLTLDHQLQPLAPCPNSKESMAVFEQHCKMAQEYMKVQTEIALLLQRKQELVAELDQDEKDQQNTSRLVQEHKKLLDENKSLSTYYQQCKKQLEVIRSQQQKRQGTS
Source text: as §1

panel of 442 kinases [3] = molecular target: T3, panel of 442 kinases (Homo sapiens, UniProt P51451); settings: Compound Concentration 10 µM
T3 construct: purchased KINOMEscan
Source text: as §1

T1 sequence (P31152 whole entry): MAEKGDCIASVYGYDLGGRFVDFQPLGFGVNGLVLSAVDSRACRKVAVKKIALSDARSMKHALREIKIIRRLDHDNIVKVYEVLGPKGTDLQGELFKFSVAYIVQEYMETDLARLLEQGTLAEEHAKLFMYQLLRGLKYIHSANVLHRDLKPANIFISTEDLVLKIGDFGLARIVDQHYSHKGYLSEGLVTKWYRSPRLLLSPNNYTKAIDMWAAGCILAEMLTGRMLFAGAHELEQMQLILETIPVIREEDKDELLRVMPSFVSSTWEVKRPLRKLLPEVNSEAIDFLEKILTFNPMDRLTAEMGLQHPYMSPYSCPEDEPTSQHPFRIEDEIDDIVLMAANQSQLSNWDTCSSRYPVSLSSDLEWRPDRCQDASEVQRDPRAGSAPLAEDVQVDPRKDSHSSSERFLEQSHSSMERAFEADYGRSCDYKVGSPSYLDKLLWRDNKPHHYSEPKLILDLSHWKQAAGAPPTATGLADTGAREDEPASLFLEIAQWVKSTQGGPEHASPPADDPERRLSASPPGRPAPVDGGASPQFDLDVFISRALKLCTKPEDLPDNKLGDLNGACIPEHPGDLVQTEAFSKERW
T3 sequence (P51451 whole entry): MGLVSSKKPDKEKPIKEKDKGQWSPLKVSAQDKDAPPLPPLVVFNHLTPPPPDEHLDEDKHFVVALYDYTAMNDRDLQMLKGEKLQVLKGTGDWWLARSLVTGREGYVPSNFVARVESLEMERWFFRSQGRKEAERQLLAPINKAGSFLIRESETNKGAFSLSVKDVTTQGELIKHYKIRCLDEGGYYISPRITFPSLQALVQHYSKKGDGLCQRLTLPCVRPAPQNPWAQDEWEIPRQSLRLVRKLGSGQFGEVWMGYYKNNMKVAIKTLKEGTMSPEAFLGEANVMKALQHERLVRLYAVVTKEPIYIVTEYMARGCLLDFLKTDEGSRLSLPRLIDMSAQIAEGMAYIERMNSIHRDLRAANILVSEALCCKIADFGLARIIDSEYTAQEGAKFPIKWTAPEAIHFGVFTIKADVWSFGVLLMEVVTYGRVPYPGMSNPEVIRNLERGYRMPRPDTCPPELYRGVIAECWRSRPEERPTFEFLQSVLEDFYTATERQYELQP

| Compound | KINOMEscan: ERK4 (panel of 442 kinases [1]) | % Ctrl, TAK1 (panel of 442 kinases [2]) [% Ctrl] | KINOMEscan: BLK (panel of 442 kinases [3]) |
| --- | --- | --- | --- |
| COc1cc(C(=O)N2CCC(N3CCN(C)CC3)CC2)ccc1Nc1ncc2c(n1)N(C)c1ccccc1C(=O)N2C [15 (LRRK2-IN-1)] | 100 | 98 | 97 |
| CCOc1cc(C(=O)N2CCC(N3CCN(C)CC3)CC2)ccc1Nc1ncc2c(n1)N(C1CCCC1)c1ccccc1C(=O)N2C [Compound 26] | 100 | 100 | 100 |
| COc1cc(C(=O)N2CCC(N3CCN(C)CC3)CC2)ccc1Nc1ncc2c(n1)N1CCc3cccc(c31)C(=O)N2C [Compound 24] | – | 100 | – |
| COc1cc(C(=O)N2CCC(N3CCN(C)CC3)CC2)ccc1Nc1ncc2c(n1)N(C1CCCC1)c1ccccc1C(=O)N2C [Compound 25, 11-cyclopentyl-2-((2-methoxy-4-(4-(4-methylpiperazin-1-yl)piperidine-1-carbonyl)phenyl)amino)-5-methyl-5H-benzo[e]pyrimido[5,4-b][1,4]diazepin-6(11H)-one] | 100 | 100 | 100 |
